Results as given in patent publication US9636317B2, “Compositions and methods of use of phorbol esters” (priority 2007, dated 2017).

Key:
Format in all cases: in vivo, human
[1] = Treatment of prostate hypertrophy (patient case)
Procedure: Patient eight, diagnosed with prostate hypertrophy. They were injected with 1 ampoule containing 0.19 mg of TPA (0.125 mg/m^2) every other day for four weeks, then 0.24 mg of TPA (1.25×0.125 mg/m^2) every other day for 2 weeks, and 0.26 mg of TPA (1.5×0.125 mg/m^2) every other day for an additional 3 weeks. Their PSA index is now below 3.0.

[2] = Treatment of myasthenia gravis (patient case); details: 35 injections of TPA, concurrent dexamethasone
Procedure: Patient eleven, suffered from myasthenia gravis for more than 40 years. They were taking dexamethasone and concurrently and was injected with 1 ampoule containing 0.19 mg of TPA (0.125 mg/m^2) every other day for four weeks, then 0.24 mg of TPA (1.25×0.125 mg/m^2) every other day for 2 weeks, and 0.26 mg of TPA (1.5×0.125 mg/m^2) every other day for an additional 3 weeks for a total of 35 injections of TPA. They no longer need the dexamethasone and is now asymptomatic.

[3] = tested on: pancreatic cancer, non-small-cell lung cancer, nasopharyngeal carcinoma; assay: TPA as an adjuvant to traditional neoplasm treatments (patient cases)
Procedure: Patient three was diagnosed with terminal metastasized pancreatic cancer. They received five injections of 0.18 mg TPA (0.125 mg/m^2) per week for 12 weeks in addition to chemotherapy.
Patient nine was diagnosed with non-small-cell lung cancer. The cancer had metastasized and was refractory to Tarceva® (erlotinib) and Iressa™ (gefitinib). The patient was treated with a combination of gemcitabine and cisplatin according to standard protocols accompanied by an injection of 0.19 mg of TPA (0.125 mg/m^2) each weekday for eight weeks. […] They have been in remission since Jun. 30, 2010.
Patient thirteen was diagnosed with terminal nasopharyngeal carcinoma and treated with both chemotherapy and radiotherapy. They received injections of 0.19 mg of TPA (0.125 mg/m^2) of TPA a day for five days prior to beginning radiotherapy and then 0.19 mg of TPA (0.125 mg/m^2) every other day for a total of 20 injections.

[4] = Treatment of Parkinson's disease (patient case); details: 0.19, 0.24, 0.26 mg TPA every other day over 9 weeks
Procedure: Patient two was diagnosed with Parkinson's disease. They were injected with 1 ampoule containing 0.19 mg of TPA (0.125 mg/m^2) TPA every other day for four weeks, then 0.24 mg of TPA (1.25×0.125 mg/m^2) every other day for 2 weeks, and 0.26 mg of TPA (1.5×0.125 mg/m^2) every other day for an additional 3 weeks.

terminal breast cancer = assay: Treatment of breast cancer (patient case); details: 35 injections, 0.18 to 0.26 mg TPA three to four times a week
Description: Patient six was diagnosed with terminal breast cancer. They were unresponsive to either radiation or chemotherapy and the cancer had metastasized into the bone leaving their wheelchair bound.

## CCCCCCCCCCCCCC(=O)O[C@@H]1[C@@H](C)[C@@]2(O)[C@@H](C=C(CO)C[C@]3(O)C(=O)C(C)=C[C@@H]23)[C@@H]2C(C)(C)[C@]12OC(C)=O [TPA, 12-O-tetradecanoylphorbol-13-acetate]
[1]; 0.19, 0.24, 0.26 mg TPA every other day over 9 weeks
  PSA index: below 3.0
[1]; same patient
  appearance: developed a more youthful appearance
[2]
  myasthenia gravis symptoms: asymptomatic
[3]; five injections of 0.18 mg TPA per week for 12 weeks in addition to chemotherapy, from 6.3 cm
  tumor in the pancreas: 2.4 cm
[3]; nasopharyngeal carcinoma patient
  skin damage from radiation treatment: did not suffer any apparent skin damage
[3]; nasopharyngeal carcinoma patient, chemotherapy and radiotherapy plus 20 injections of 0.19 mg TPA
  remission: in remission for two and a half years
[3]; non-small-cell lung cancer patient, gemcitabine and cisplatin plus 0.19 mg TPA each weekday for eight weeks
  side effects of chemotherapy: did not lose any hair and had significantly less nausea
[3]; non-small-cell lung cancer patient, gemcitabine and cisplatin plus TPA
  remission: in remission since Jun. 30, 2010
[3]; pancreatic cancer patient, TPA in addition to chemotherapy
  side effects of chemotherapy: significantly less vomiting and nausea than in prior chemotherapy treatments without TPA
[4]
  tremors: no longer displaying tremors
Terminal breast cancer
  outcome, terminal breast cancer metastasized into the bone: in remission and able to walk normally
